# Experiments:
# HDAC1 = HDAC1 (Homo sapiens, UniProt Q13547); assay: HDAC1 in vitro assay; type: biochemical
# Procedure: The HDAC1 and SIRT1 assays were performed as described previously.
# [1] = Stability of MC2884 in cell culture medium (RP-HPLC); type: physicochemical
# Procedure: The compound was dissolved in DMEM at 50 µM and its concentration was measured by RP-HPLC using a ONYX 50 × 2 mm ID C18 column operating at 600 µL/min. The gradient applied was from 1% solvent B to 70% solvent B in 10 minutes. Solvent A was water with added 0.1% trifluoroacetic acid (TFA) and solvent B was acetonitrile with added 0.1% TFA. The eluate was monitored using a diode array detector with wavelengths set between 200–320 nm. The compound was eluted at 11.1 min. Peak integration was carried out on the chromatogram extracted at […], which is one of the compound absorbance maxima. A calibration curve was built by injecting solutions of the compound in DMSO at concentrations ranging between 1.5 µM and 200 µM. After incubation in DMEM compound concentration was determined at time points ranging between 0 and 72 hrs. As shown, half of compound was degraded after 10 h. At 72 hrs it was fully degraded under these conditions.
# CYP2C19 = biological target: T1, CYP2C19 (Homo sapiens, UniProt P33261); assay: Cytochrome P450 inhibition, CYP2C19; type: in vitro ADME; settings: human liver microsomes, probe mephenytoin
# T1 construct: from tissue; host or cells: human liver microsomes
# T1 sequence (P33261 whole entry): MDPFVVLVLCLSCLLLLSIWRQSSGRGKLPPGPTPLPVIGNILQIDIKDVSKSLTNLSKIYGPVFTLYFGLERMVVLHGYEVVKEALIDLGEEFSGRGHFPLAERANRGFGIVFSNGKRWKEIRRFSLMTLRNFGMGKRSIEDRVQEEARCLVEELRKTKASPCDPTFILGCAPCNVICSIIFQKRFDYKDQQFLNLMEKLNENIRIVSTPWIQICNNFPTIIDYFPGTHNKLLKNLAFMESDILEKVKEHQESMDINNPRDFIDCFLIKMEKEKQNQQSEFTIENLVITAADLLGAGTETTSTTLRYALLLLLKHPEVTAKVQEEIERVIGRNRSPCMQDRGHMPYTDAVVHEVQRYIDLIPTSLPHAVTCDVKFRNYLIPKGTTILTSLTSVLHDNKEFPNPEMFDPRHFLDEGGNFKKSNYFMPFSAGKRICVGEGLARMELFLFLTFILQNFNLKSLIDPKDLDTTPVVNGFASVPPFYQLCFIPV
# Procedure: (§1) This provided a dose of 2 mg free base material/kg when Cytochrome p450 inhibition (5 isoform iC50 administered iv in a 5 mL/kg dosing volume. determination) mouse terminal ip pK study ADME-Tox Cytochrome P450 inhibition of Compound MC2884 was given ip at a dose of 2 mg/kg MC2884 using human liver microsomes as an estimation to a group of 24 normally fed male CD1 mice in a 10 mL/ of in vitro metabolism. kg injection volume. Terminal blood samples (> 230 μL) MC2884 (0.1 μM–25 μM) was incubated with were taken under CO2 from groups of 3 mice at each of 8 human liver microsomes and NADPH in the presence time-points post dose (0.083, 0.25, 0.5, 1, 2, 4, 8 and 24 h) of a cytochrome P450 isoform-specific probe substrate. and placed into heparinized tubes. […]
# (§2) All samples were stored at −20° C measuring the formation of a fluorescent metabolite. […]
# (§3) Cyp2C19 inhibition (0.1 mg/mL) and NADPH (1 mM) in the presence of the probe substrate midazolam (2.5 μM) for 5 min at Six test compound samples at concentrations 37° C. […] For the CYP1A incubations, the reactions microsomes (0.5 mg/mL) and NADPH (1 mM) in the were terminated by methanol, and the formation of the presence of the probe substrate mephenytoin (25 μM) metabolite, resorufin, was monitored by fluorescence for 60 min at 37° C. […]
# CYP2D6 = biological target: T2, CYP2D6 (Homo sapiens, UniProt P10635); assay: Cytochrome P450 inhibition, CYP2D6; type: in vitro ADME; settings: human liver microsomes, probe dextromethorphan
# T2 construct: liver microsomes (0.5 mg/mL) and NADPH (1 mM) in; from tissue; host or cells: human liver microsomes
# T2 sequence (P10635 whole entry): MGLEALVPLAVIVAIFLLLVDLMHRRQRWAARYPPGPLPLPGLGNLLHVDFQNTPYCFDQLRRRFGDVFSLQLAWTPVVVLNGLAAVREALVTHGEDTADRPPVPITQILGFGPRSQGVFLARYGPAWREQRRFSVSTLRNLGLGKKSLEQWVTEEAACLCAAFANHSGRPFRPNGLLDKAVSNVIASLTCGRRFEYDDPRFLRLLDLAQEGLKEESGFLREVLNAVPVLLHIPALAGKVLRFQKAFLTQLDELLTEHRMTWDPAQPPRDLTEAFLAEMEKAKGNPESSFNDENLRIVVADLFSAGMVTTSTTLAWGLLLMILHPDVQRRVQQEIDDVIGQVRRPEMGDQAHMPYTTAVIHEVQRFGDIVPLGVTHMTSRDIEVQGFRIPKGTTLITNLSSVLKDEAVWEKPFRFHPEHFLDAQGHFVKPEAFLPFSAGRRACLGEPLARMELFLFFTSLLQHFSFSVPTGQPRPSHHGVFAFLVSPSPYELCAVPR
# Procedure: as §1, §2, §3
# Sequence of HDAC1 (Q13547 whole entry): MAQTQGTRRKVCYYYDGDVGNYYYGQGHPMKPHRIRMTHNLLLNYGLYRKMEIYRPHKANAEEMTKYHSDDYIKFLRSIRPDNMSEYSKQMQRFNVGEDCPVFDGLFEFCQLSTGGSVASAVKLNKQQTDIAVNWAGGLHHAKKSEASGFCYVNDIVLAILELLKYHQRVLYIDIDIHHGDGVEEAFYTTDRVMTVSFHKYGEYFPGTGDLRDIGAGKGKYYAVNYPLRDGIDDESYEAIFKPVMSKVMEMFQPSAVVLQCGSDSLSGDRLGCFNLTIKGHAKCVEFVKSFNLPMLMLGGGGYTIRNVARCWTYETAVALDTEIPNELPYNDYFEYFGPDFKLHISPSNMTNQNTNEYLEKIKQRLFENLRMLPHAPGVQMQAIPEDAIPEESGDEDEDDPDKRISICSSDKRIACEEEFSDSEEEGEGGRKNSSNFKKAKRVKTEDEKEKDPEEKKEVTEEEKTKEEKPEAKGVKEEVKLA
smiles,measurement,setting,value
O=C1/C(=C/c2cccc(Br)c2)CN(Cc2ccccc2)C/C1=C\c1cccc(Br)c1 [MC2884],HDAC modulating action,HDAC1,no activity
same,half-life at 50 µM,"[1]; DMEM cell culture medium, read-out: half-life in cell culture media (converted)",600 min
same,time for total degradation in cell culture media,"[1]; DMEM, 50 µM",72 h
same,IC50,CYP2C19,> 25 µM
same,IC50,CYP2D6,> 25 µM

# Reference: PMC5986654, “Combined HAT/EZH2 modulation leads to cancer-selective cell death” (Oncotarget, 2018)
